Source: paper PMC10541411 (Nature Communications, 2023)
Ends that are not written are not given here. Me2 = dimethyl-lysine

How the values were obtained:
[1] = biological target: T1, 53BP1^TT-PN (E1549P/D1550N) (Homo sapiens, UniProt Q12888, D1550N/E1549P); test: 1H-15N HSQC NMR titration of 15N-labeled 53BP1TT-PN; format: binding; settings: up to fourfold molar excess
T1 construct: The tandem Tudor domain of 53BP1 (53BP1^TT, residues 1481–1603) was purified as previously described; made in house
T1 sequence (Q12888 1481-1603 E1549P/D1550N): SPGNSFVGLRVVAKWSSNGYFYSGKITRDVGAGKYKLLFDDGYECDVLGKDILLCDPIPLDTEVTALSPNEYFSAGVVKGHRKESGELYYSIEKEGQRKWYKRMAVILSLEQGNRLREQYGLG
Protocol: (§1) All NMR data were collected at 25 °C on a 700 MHz Bruker Avance III spectrometer equipped with a cryoprobe. Data were processed and analyzed with NMRPipe[54] and NMRViewJ[55],[56].
(§2) To probe chemical shift perturbations, ^1H-^15N HSQC spectra were acquired on the following samples: 0.2 mM ^15N-labeled 53BP1^TT WT and 53BP1^TT-PN in 25 mM sodium phosphate, pH 7.0, 1.5 mM NaN3, 0.3 mM DSS, 90% H2O/10% D2O, free and incrementally titrated with various non-labeled inhibitors (UNC1078, UNC1118, UNC2170, UNC2991, UNC3474), as well as with H4KC20me2 and p53K382me2 peptides. Chemical shift perturbations (Δδ) were calculated using the Eq. (1):1 Δδ=(ΔN/5)^2+ΔH^2 where ΔN and ΔH are the corresponding differences in ^15N and ^1H chemical shifts between the bound and free forms of 53BP1.

[2] = biological target: T2, 53BP1^TT (tandem Tudor domain of 53BP1, residues 1481–1603) (Homo sapiens, UniProt Q12888); test: Isothermal titration calorimetry (ITC) of small molecules with 53BP1TT; format: binding; settings: 25 °C, 50 mM Tris-HCl pH 7.5, 50 mM NaCl, one-site model; read-out: Kd (apparent, ITC)
T2 construct: The tandem Tudor domain of 53BP1 (53BP1^TT, residues 1481–1603) was purified as previously described; made in house; host or cells: E. coli (only for the SAXS sample)
T2 sequence (Q12888 1481-1603): as the sequence (Q12888 1481-1603 E1549P/D1550N) above, with P69E, N70D counted along it
Protocol: The ITC measurements were performed at 25 °C using a MicroCal iTC200 calorimeter. 53BP1^TT and the small molecules (UNC2991, UNC3351, UNC3474) were in 50 mM Tris-HCl, pH 7.5, 50 mM NaCl. In a typical run, 53BP1^TT was in the reaction cell at a concentration of 150 to 160 μM while the small molecule, in the titration syringe at a concentration of 0.8–2 mM, was delivered as 2 μL injections every 3 min. The titrations were paired with control experiments for heat of dilution. The titration of 53BP1^TT with UNC1118 was performed using a MicroCal VP-ITC calorimeter. ITC data were fitted to a one-site model using a Levenberg-Marquardt non-linear regression algorithm programmed in the Origin 7.0 software.
Supplementary Figure 1 | Interaction of 53BP1TT with small molecules probed using isothermal titration calorimetry (ITC) and small-angle X-ray scattering (SAXS). a, ITC of the interaction of UNC2991, UNC3351 and UNC3474 with 53BP1TT. Raw titration data and integrated heat measurements are shown. Indicated apparent Kds with associated standard deviations were determined by nonlinear least-squares analysis.
1.33 and 2 mg/mL with an exposure time of 0.5 s, without and with 10-fold molar excess of UNC1118 or UNC3474. The error bars in the scattering curves were generated using PRIMUS in the data analysis software ATSAS 2.4.2 and represent mean ± standard deviation calculated from signal intensity scaling and merging for the three different 53BP1TT concentrations. The Guinier plots, dimensionless Kratky plots and pair distance distribution functions derived from the SAXS data are shown. Also shown are the crystal structures of 53BP1TT and 53BP1TT-UNC3474 overlaid to the corresponding SAXS-based ab initio molecular envelopes generated using GASBOR 2.3i. c, Interaction of UNC1118 with 53BP1TT characterized using ITC (left) and NMR spectroscopy (right).
For the ITC, raw titration data and integrated heat measurements are shown. The indicated Kd with associated standard deviation was determined by nonlinear least-squares analysis.
(1 picture or pasted object on this page, not shown here)

53BP1^TT WT = 53BP1^TT WT (Homo sapiens, UniProt Q12888); test: 1H-15N HSQC NMR titration of 15N-labeled wild-type 53BP1TT; format: binding; set-up: The tandem Tudor domain of 53BP1 (53BP1^TT, residues 1481–1603) was purified as previously described; made in house; host or cells: E. coli (only for the SAXS sample); settings: 15N-labeled WT 53BP1TT
53BP1^TT WT, sequence (Q12888 1481-1603): as the sequence (Q12888 1481-1603 E1549P/D1550N) above, with P69E, N70D counted along it
Protocol: as §1, §2

[3] = biological target: 53BP1^TT-CC (tandem Tudor domain of 53BP1, residues 1481-1603, E1549C/E1567C), disulfide-crosslinked homodimer (UniProt Q12888); test: AUC; sedimentation velocity of 53BP1^TT-CC (20 uM) without DTT; 20 °C, 20 mM sodium phosphate pH 7.5, 50 mM NaCl
53BP1^TT = biological target: T3, 53BP1^TT (Homo sapiens, UniProt Q12888); set-up: method as in PMID 25590533; settings: previously identified; read-out: dissociation constant (Kd); cited from earlier work
T3 construct: The tandem Tudor domain of 53BP1 (53BP1^TT, residues 1481–1603) was purified as previously described; made in house; host or cells: E. coli (only for the SAXS sample)
T3 sequence (Q12888 1481-1603): as the sequence (Q12888 1481-1603 E1549P/D1550N) above, with P69E, N70D counted along it

53BP1^TT homodimer = biological target: T4, 53BP1^TT homodimer (Homo sapiens, UniProt Q12888); test: 2D longitudinal 1H-15N-heteronuclear ZZ-exchange NMR spectroscopy, protomer interconversion; format: binding; settings: 25 °C, 1 mM 15N-labeled 53BP1TT and 9 mM UNC2170, signals of E1524
T4 construct: The tandem Tudor domain of 53BP1 (53BP1^TT, residues 1481–1603) was purified as previously described; made in house; host or cells: E. coli (only for the SAXS sample)
T4 sequence (Q12888 1481-1603): as the sequence (Q12888 1481-1603 E1549P/D1550N) above, with P69E, N70D counted along it
Protocol: as §1
The protomer interconversion rates in the 53BP1^TT-UNC2970 complex were determined using 2D longitudinal ^1H-^15N-heteronuclear ZZ-exchange NMR spectroscopy[22]–[24]. For these experiments, a series of 11 spectra were acquired with mixing times of 0, 100, 200, 300, 400, 500, 600, 700, 800, 900, and 1000 ms in 25 mM sodium phosphate, pH 7.0, 100 mM NaCl, 1.5 mM NaN3, 0.3 mM DSS, 90% H2O/10% D2O. The interconversion rates were obtained from nonlinear fitting of auto peak and exchange peak intensities accounting for two-site exchange and ^15N R1 relaxation using the equations previously described for a two-state model.

| Compound | interaction with 53BP1TT-PN (1H-15N HSQC titration) [1] | Kd [2] [µM] | changes in signal positions in the 1H-15N HSQC spectrum of 53BP1TT upon titration (53BP1^TT WT) | also measured |
| --- | --- | --- | --- | --- |
| p53K382me2: dimethylated p53 peptide (residues 377–386) purchased from GenScript (TSRHKK(Me2)LMFK) [reference compound] | bound | – | – | – |
| CC(C)(C)NCCCNC(=O)c1cccc(I)c1 [UNC2991] | did not interact | 3.9 ± 0.4 | slow exchange on the chemical shift time scale | – |
| 53BP1^TT-CC (tandem Tudor domain of 53BP1, residues 1481-1603, E1549C/E1567C), disulfide-crosslinked homodimer (from UniProt Q12888 1481-1603) (domain or fragment) | – | – | – | stoichiometry N [3]: 2 |
| H4KC20me2: dimethylated histone H4 peptide (residues 12–25) with chemically installed dimethyl-lysine analog (KGGAKRHRCVLRDN; dimethyl-lysine analog at position 20 (KC20me2), installed chemically) [reference compound] | bound | – | – | – |
| CC(C)(C)NCCCNC(=O)c1cccc(Br)c1 [UNC2170] | did not interact | – | slow exchange on the chemical shift time scale | Kd (53BP1^TT): 22 ± 2.5 µM; interconversion rate kAB between the two protomers in the 53BP1TT dimer (53BP1^TT homodimer): 1.7 s⁻¹; interconversion rate kBA between the two protomers in the 53BP1TT dimer (53BP1^TT homodimer): 1.2 s⁻¹ |
| CC(C)(C)NCCCNC(=O)c1cccc(C(F)(F)F)c1 [UNC3351] | – | 6.8 ± 0.4 | slow exchange on the chemical shift time scale | – |
